Experimental data as given in paper PMC11825364, “Development of supramolecular anticoagulants with on-demand reversibility” (Nature Biotechnology, 2024).

Key:
[1] = tested on: C57BL/6J mice; test: Needle injury thrombosis model; assay type: in vivo, mouse; conditions: A1–E1 5 mg per kg i.v. bolus twice 30 min apart, argatroban 2 mg per kg bolus + 12 mg per kg infusion over 60 min
Method: For intravital mouse studies, male mice aged between 5 and 8 weeks old (15–20 g) were used.
A clinical preparation of argatroban (Argatra/Exembol) was purchased from Mitsubishi Tanabe Pharma (Germany) and prepared in sterile saline with 25% (vol/vol) propylene glycol. Synthesized PNA inhibitors and PNA inhibitors + antidote solutions were prepared in sterile saline at a concentration of 2 mg ml^–1. C57BL/6J male mice (15–25 g) were anesthetized with ketamine (150 mg per kg (body weight)) and xylazine (15 mg per kg (body weight)), supplemented with oxygen and subjected to intravital needle injury, as previously described[42]. […] Following each injury, platelet thrombus formation and fibrin generation were monitored over a 15-min period using a confocal intravital microscopy platform (Nikon A1R-Si with an Apo LWD, ×40/1.15-NA water immersion objective; sequential excitation: 488-, 561- and 638-nm lasers; emission: 525/50-, 595/50- and 700/75-nm filters) and NIS Elements Advanced Research acquisition software. […]
The signal obtained from DyLight 649-conjugated anti-GP1bβ for each xyz stack in a time series was thresholded to create a mask. The total signal (arbitrary units) from Alexa Fluor 546-conjugated anti-fibrin within this mask (that is, the fibrin signal within the thrombus) for each time point was then quantified using NIS Elements software (Nikon). […]

[2] = molecular target: Biotin-PNA (8-mer) ACAACTGC; test: SPR of PNA hybridization; assay type: binding; conditions: 25 °C
Method: SPR experiments were performed on a Biacore T200 instrument (GE Healthcare) at 25 °C in PBS-P+ buffer (10× stock; Cytiva Life Sciences, 28995084). Biotin-PNA (8-mer) was immobilized on a Streptavidin Series S sensor chip (Cytiva Life Sciences, 29104992). Before immobilization, the two channels were conditioned with 1 M NaCl in 50 mM NaOH. After stabilization, the compound (solution in PBS-P+) was flowed over one of the flow cells of the sensor chip at a concentration of 50 nM at a flow rate of 10 μl min^−1 with a response unit target of 500. Biotin-PNA (8-mer) reached a response unit value of 513.7. The system (not including the flow cells) was washed with 50% isopropanol in 1 M NaCl and 50 mM NaOH after each ligand injection. Kinetic measurements consisted of injections (association, 400 s; dissociation, 450 s; flow rate, 30 μl min^−1) of decreasing concentrations of PNA (4-, 6- and 8-mer; twofold cascade dilutions from the starting concentration). The chip was regenerated between cycles by one injection of regeneration solution (50 mM NaOH) for 10 s at a flow rate of 20 μl min^−1, followed by a 10-s stabilization period. Binding was measured as resonance units over time after blank subtraction, and the data were interpreted using Biacore T200 software (version 3.2). All measurements were performed in duplicate. The KD values were calculated based on steady-state affinity (1:1 binding).

[3] = molecular target: T1, human α-thrombin (Homo sapiens, UniProt P00734); test: Michaelis Menten determination of KM of the fluorogenic substrate; assay type: biochemical; conditions: without inhibitor, variation of [substrate]; R2 0.98
T1 construct: human α-thrombin (Haematologic Technologies, HCT0020); purchased Haematologic Technologies HCT0020
Method: Inhibition assays were performed using 0.2 nM enzyme, 20 μM substrate and increasing concentrations of inhibitor. The concentration of each inhibitor variant was determined using the absorbance of the PNA at 260 nm, as measured by NanoDrop. All reactions were performed at 37 °C in 50 mM Tris-HCl (pH 8.0), 50 mM NaCl and 1 mg ml^–1 bovine serum albumin in black 96-well microtiter plates (Thermo Fisher Scientific, 267342). Reaction progress was monitored by excitation at 339 nm and emission at 439 nm using a SpectraMax or Tecan Spark Plate Reader. Dose–response curves were used to determine the half-maximal inhibitory concentrations (IC50) using Prism 8.0 (GraphPad Software). For each inhibitor, the reactions were performed in triplicate, together with control reactions in the absence of enzyme. The initial velocity was calculated from the slope of the first 10 min of the assay. The curves were normalized to the well without inhibitor, where the initial velocity was set to 100% activity.
MALDI-TOF; m/z found: 1202.95.
5. Thrombin Inhibition Assay
Supplementary Figure 2: Thrombin Fluorogenic Assay
The assay was performed as described in the Online Methods section.
To convert IC50 values to Ki values, KM was determined: The assay described above was performed
without inhibitor but with variation of [substrate]. The Michaelis Menten plot was obtained, and KM […]

Molecule: CC1CNc2c(cccc2S(=O)(=O)N[C@@H](CCCNC(=N)N)C(=O)N2CC[C@@H](C)C[C@@H]2C(=O)O)C1 (stereo partly shown) [argatroban]
- fibrin formation and thrombus size [1]: significant decreases in fibrin formation and thrombus size

Molecule: CAGT
- Kd [2]: 4.14 µM

Molecule: phe-Pro-Arg-Coumarin [(S)-1-(D-phenylalanyl)-N-((S)-5-guanidino-1-((4-methyl-2-oxo-2H-chromen-7-yl)amino)-1-oxopentan-2-yl)pyrrolidine-2-carboxamide, substrate of the thrombin assay]
- Km [3]: 2.42 µM
- Vmax [3]: 435.8
